Test results taken from a compilation of properties of binary mixtures (doi:10.1016/j.fluid.2015.06.043).

Test: xn = mol fraction of the nth substance listed
Details: 101 kPa

O + CC[n+]1ccccc1.O=S(=O)([O-])C(F)(F)F
x2 = 0
Details	viscosity [mPa·s]
298.15 K	0.89
303.15 K	0.8
313.15 K	0.65
333.15 K	0.47
343.15 K	0.4

CC[n+]1ccccc1.O=S(=O)([N-]S(=O)(=O)C(F)(F)F)C(F)(F)F + O
viscosity [mPa·s]
Details	283.15 K	293.15 K	298.15 K	303.15 K	313.15 K	333.15 K	343.15 K	353.15 K
x2 = 0.0043	78.6	49.9	40.1	33.3	24	13.7	10.88	–
x2 = 0.087	64.3	41.7	–	28.4	20.6	12.15	–	7.92

CC[n+]1ccccc1.O=S(=O)([O-])C(F)(F)F + O
viscosity [mPa·s]
Details	293.15 K	298.15 K	303.15 K	313.15 K	323.15 K	333.15 K	343.15 K	353.15 K
x1 = 0.067	–	–	1.9	1.5	1.22	1.02	–	–
x1 = 0.183	5.3	4.6	4.03	3.16	2.55	2.1	1.76	–
x1 = 0.498	17.7	–	13	9.96	7.86	6.34	5.24	4.41
x1 = 0.689	33.4	27.8	23.5	–	13.26	10.46	–	6.92
x1 = 0.893	65.7	53.2	43.7	30.8	22.5	17.1	13.4	–
x1 = 1	75.2	60.6	48.8	33.8	24.5	18.2	14.05	11.13
